# From patent publication US20050059626A1, “Methods of preventing and treating viral infections using immunomodulatory polynucleotide sequences” (priority 2000, published 2005)
# Legend:
# HSV-2 [1] = test: Viral titer from Vero cells pre-treated with oligonucleotide, HSV-2; type: cell-based, African Green monkey (Vero cells); settings: cells infected with HSV-2
# Experimental: (§1) Vero cells, a cell line derived from African Green monkey kidney, were pre-treated with varying concentrations of ISS or non-ISS oligonucleotides for varying times prior to the addition of HSV-1 or HSV-2. Oligonucleotides were used at 1 μg/ml or 10 μg/ml and the cells were incubated with the oligonucleotides for 30 seconds, 10 minutes or 24 hours. Viral titers were calculated as a percent of control titer generated by cells not treated with the oligonucleotides. The data are expressed as percent of control titer.
# HSV-2 strain 186 = test: Vaginal HSV-2 lethal challenge in mice; type: in vivo, Swiss Webster mice
# Description: Outbred Swiss Webster mice, vaginally infected with HSV-2 strain 186, were used as a model of HSV infection. In these animals, the first indication of viral infection is hair loss and erythema (HLE) near the vagina occurring, on average, 5 days after inoculation. The next stage of infection is indicated by chronic wetness (CW) due to loss of bladder control, on average, 6 days after inoculation. A portion (about 50% of infected mice) of the animals develop hind limb paralysis (HLP) at approximately the same time point. Death, which is often preceded by evidence of CNS disease, occurs an average of 7-9 days after viral inoculation.
# Mice were prepared for infection by an initial two-dose treatment with depopriven to synchronize cycles and to thin the vaginal epithelium. Vaginal mucous was removed by swabbing with calcium alginate, then a lethal challenge dose (determined by titration) of HSV-2 strain 186 was delivered by positive-displacement pipettor. Inoculated mice were randomly grouped into one of 4 treatment groups (n=15/group). Animals in group 1 received no treatment and served as a control for the study. Animals in the second and third groups were treated topically with 100 μg of an ISS-containing phosphorothioate oligonucleotide (5′-[…]-3′) (SEQ ID NO:1) suspended in phosphate-buffered saline (PBS). The groups were treated 2 or 6 hours after inoculation. As a vehicle control, group four was treated with PBS alone.
# In another experiment, inoculated mice were randomly grouped into 8 treatment groups (n=16/group). Animals in the groups received treatments as outlined in Table 11 below. The groups were treated 2 hours after virus inoculation.
# HSV-1 = test: Viral titer from Vero cells pre-treated with oligonucleotide, HSV-1; type: cell-based, African Green monkey (Vero cells); settings: for Viral titer, percent of control titer: cells infected with HSV-1
# Experimental: as §1
# HSV-2 strain MS = test: Recurrent genital HSV-2 disease in guinea pigs; type: in vivo, Swiss Hartley guinea pigs
# CRPV-E8m = test: Rabbit papilloma model (CRPV-E8m), papilloma geometric mean diameter
# Experimental: In another experiment, a mutant of CRPV which induces small papillomas, CRPV-E8m, was used to induce papillomas on five rabbit treatment groups (five rabbits per group). In each animal, papillomas on the left side of the animal received treatments and papillomas on the right side were untreated. Four of the treatment groups received doses between 100 μg and 2000 μg of ISS as intradermal injections per papilloma at several treatment regimes and the fifth group received injections of PBS as control, as outlined below.
# Four papillomas, initiated with CRPV-E8m plasmid DNA, were established on each rabbit. Skin at the site of papilloma initiation was made hyperplastic using a mixture of turpentine and acetone prior to viral DNA administration. The size of papillomas was measured (three dimensions, in mm) and the GMD calculated for each papilloma.
# HSV-2 [2] = test: Viral titer after pre-treating HSV-2 virus with oligonucleotide, Vero cells; type: cell-based, African Green monkey (Vero cells)
# Experimental: HSV-1 or HSV-2 virus was pre-treated with varying concentrations of ISS or non-ISS oligonucleotides for 10 minutes prior to adding the mixture to plated Vero cells. Oligonucleotides were used at 1 μg/ml or 10 μg/ml. Viral titers were calculated as a percent of control titer generated by cells not treated with the oligonucleotides. The data are expressed as percent of control titer.
# canine papillomavirus = test: Canine oral papilloma model, time to lesion regression; type: in vivo, Beagle puppies
# Experimental: A model of canine oral papilloma was used to test the efficacy of ISS on papilloma. Beagle puppies were inoculated in the bucal mucosa with canine papillomavirus and developing papilloma lesions were monitored daily. Four groups of seven dogs each were treated with differing amount of ISS oligonucleotide (5′-[…]-3′ (SEQ ID NO:1), phosphorothioate backbone). One group received 50 μg ISS twice a week, another group received 500 μg ISS twice a week, the third group received 500 μg ISS one time only at the first signs of papilloma lesion development (injected within the papilloma lesion) and the fourth group (control group) received PBS twice a week. All dogs were monitored daily for the development of lesions and the time to regression.
# [3] = cells pre-treated 1 μg/ml, 30 sec
# [4] = cells pre-treated 1 μg/ml, 10 min
# [5] = cells pre-treated 1 μg/ml, 24 hr
# [6] = cells pre-treated 10 μg/ml, 30 sec
# [7] = cells pre-treated 10 μg/ml, 10 min
# [8] = cells pre-treated 10 μg/ml, 24 hr
# [9] = 100 μg topical 2 h post-inoculation (PI)
# [10] = 100 μg topical 6 h post-inoculation (PI)
substance,measurement,setting,value
5′-TGACTGTGAACGTTCGAGATGA-3′ [SEQ ID NO: 1],"Viral titer, percent of control titer",HSV-2 [1]; [3],101% of control titer
same,"Viral titer, percent of control titer",HSV-2 [1]; [4],98% of control titer
same,"Viral titer, percent of control titer",HSV-2 [1]; [5],99% of control titer
same,"Viral titer, percent of control titer",HSV-2 [1]; [6],101% of control titer
same,"Viral titer, percent of control titer",HSV-2 [1]; [7],101% of control titer
same,"Viral titer, percent of control titer",HSV-2 [1]; [8],99% of control titer
same,"Overall effect on HSV2 disease (incidence, survival, time to symptoms and death)",HSV-2 strain 186; 100 μg topical 2 or 6 hours after inoculation,"decreased incidence (i.e., individuals showing symptoms of HSV2 infection), improved survival and delays in both appearance of symptoms and time to death"
same,Incidence (%),HSV-2 strain 186; [9],60%
same,Incidence (animals with symptoms/total),HSV-2 strain 186; [9],9/15
same,Survival (%),HSV-2 strain 186; [9],40%
same,Survival (survivors/total),HSV-2 strain 186; [9],6/15
same,Time to Death,HSV-2 strain 186; [9],12 days
same,Time to Symptoms,HSV-2 strain 186; [9],6.6 days
same,Incidence (%),HSV-2 strain 186; [10],80%
same,Survival (%),HSV-2 strain 186; [10],27%
same,Survival (survivors/total),HSV-2 strain 186; [10],4/15
same,Time to Death,HSV-2 strain 186; [10],10.6 days
same,Time to Symptoms,HSV-2 strain 186; [10],5.75 days
same,Change in average time to death,"HSV-2 strain 186; animals that died, treated two hours after infection",increased by an average of over two days
same,Effect on viral titers from infected cells,"HSV-1; cells incubated with ISS prior to HSV infection in vitro (HSV-1 and HSV-2, Table 12)",no effect on the viral titers
same,"Viral titer, percent of control titer",HSV-1; [3],98% of control titer
same,"Viral titer, percent of control titer",HSV-1; [4],96% of control titer
same,"Viral titer, percent of control titer",HSV-1; [5],89% of control titer
same,"Viral titer, percent of control titer",HSV-1; [6],100% of control titer
same,"Viral titer, percent of control titer",HSV-1; [7],102% of control titer
same,"Viral titer, percent of control titer",HSV-1; [8],82% of control titer
same,Frequency of recurrences (recurrent lesions),"HSV-2 strain MS; 200 μg at 21 days PI (one group also days 42 and 63), ANOVA p=0.012",significant reduction in the frequency of recurrences
same,Effect on frequency of viral shedding,HSV-2 strain MS; single topical treatment 1 mg at day 21,unaffected
same,Magnitude of viral shedding,"HSV-2 strain MS; single topical treatment 1 mg at day 21, vs control groups, p<0.001",significantly reduced
same,Cumulative mean recurrent lesion days,"HSV-2 strain MS; single topical treatment 1 mg at day 21, vs non-ISS control or untreated",significantly decreased the cumulative mean recurrent lesion days
same,"Size of papillomas (GMD), treated versus untreated","CRPV-E8m; Treatment Group C: 500 μg/injection, 1 time/week days 47-86, intradermal",reduction in the size of the ISS treated papillomas compared to untreated papillomas
same,"Papilloma growth rates, treated versus untreated papillomas","CRPV-E8m; Treatment Groups A, B, D (100 μg 3x/week; 100 μg 1x/week; 2000 μg weeks 7 and 10), intradermal",Minimal differences
same,"Viral titer, percent of control titer",HSV-2 [2]; HSV-2 virus pre-treated 10 minutes with 1 μg/ml,96% of control titer
same,"Viral titer, percent of control titer",HSV-2 [2]; HSV-2 virus pre-treated 10 minutes with 10 μg/ml,102% of control titer
same,Average rate of lesion regression,canine papillomavirus; 500 μg one time at first signs of papilloma lesion,higher average rate of lesion regression than untreated dogs
same,Average time for rapid regression,"canine papillomavirus; 500 μg one time at first signs of papilloma, injected within the lesion",25.1 days
same,Regression time,canine papillomavirus; other treatment groups: 50 μg or 500 μg twice a week,did not show a marked difference in regression time
